From patent US4892736A, “Intra-pocket drug delivery devices for treatment of periodontal diseases” (The Forsyth Dental Infirmary for Children, priority 1988, dated 1990) come the findings set out here.

The test system of this experiment is cultivable periodontal microorganisms. In words: Concentration of tetracycline necessary to suppress growth of all cultivable periodontal microorganisms (agar plates). It counts as cell-based. To be noted: anaerobic, 35° C., 5 to 7 days. The protocol:
Samples containing periodontal organisms taken from deep periodontal pockets of 5 patients were transferred to 10 ml of pre-reduced Ringer's solution, dispersed by 10 seconds of sonic oscillation at an amplitude of 10 microns, and dilutions of 1:20, 1:100, and 1:1000 were prepared. One-tenth milliliter of each dilution was streaked on trypticase soy agar containing 5% sheep blood and 0.3 μg/ml menadione in petri dishes. Identical plates were prepared containing 1, 8, 32, and 64 micrograms/milliliter of tetracycline hydrochloride. Inoculated plates were incubated at 35° C. in an anaerobic atmosphere at 80% nitrogen, 10% hydrogen, and 10% carbon dioxide for 5 to 7 days. Plates from dilutions providing separated colony growth were selected for counting to determine the total colony forming units on primary medium and each associated tetracycline-containing medium. Percentages of organisms grown at each concentration were computed. Values of 21.2%, 3.6%, 0.08%, and 0% were found on plates containing 1, 8, 32, and 64 micrograms/milliliter tetracycline respectively. These observations indicate that no cultivable periodontal organisms grow at tetracycline concentrations of 64 micrograms/milliliter, thereby establishing the primary design parameter for a local drug delivery system for periodontal therapy which would suppress growth of all cultivable periodontal microorganisms with continuous exposure of the organisms to tetracycline.

Structures can show the parent of a compound that is named as a salt.

Consider `CN(C)C1C(=O)C(C(N)=O)=C(O)C2(O)C(=O)C3=C(O)c4c(O)cccc4C(C)(O)C3CC12` (centres unmarked) [tetracycline, tetracycline hydrochloride], for which, for the setting “168 h, 1 microgram/milliliter tetracycline, % of colony forming units on primary medium, read-out: Percentage of organisms grown”, the activity at 1 µg/mL was found to be 21.2%. For the same molecule, the activity at 8 µg/mL (168 h, 8 micrograms/milliliter tetracycline, % of colony forming units on primary medium, read-out: Percentage of organisms grown) turned out to be 3.6%. In addition, the activity at 32 µg/mL (168 h, 32 micrograms/milliliter tetracycline, % of colony forming units on primary medium, read-out: Percentage of organisms grown) was determined as 0.08%. Besides, the activity at 64 µg/mL (168 h, 64 micrograms/milliliter tetracycline, % of colony forming units on primary medium, read-out: Percentage of organisms grown) is 0%. Moreover, the MIC (tested 1, 8, 32, 64 micrograms/milliliter, read-out: Concentration at which no cultivable periodontal organisms grow) amounted to 64 µg/mL.
